Our source for the inhibition values is patent US20090215742A1, “AMIDE […]” (PFIZER, INC., priority 2005, published 2009).

The assay has as its target T1, HSP-90 (Homo sapiens, UniProt P07900).
T1 construct: fused on or other part: 6-His tag at the C-terminus
The experiment in a line: HSP-90 SPA (scintillation proximity assay) competition binding assay, displacement of tritiated propyl-Geldanamycin. The settings on record: for inhibition at 1 µM: read-out: % inhibition @ 1 μM; for inhibition at 10 µM: read-out: % inhibition @ 10 μM. Here is the method:
Compounds of the present invention were evaluated for potency against HSP-90 using a SPA (scintillation proximity assay) competition binding assay. Briefly, either full length or N-terminal HSP-90 that contains a 6-His tag on its C-terminus binds to copper on Yttrium-silicate scintillant beads via the His-tag. Tritiated propyl-Geldanamycin (pGA), whose structure is shown below, is an analog of a natural inhibitor of HSP-90 called Geldanamycin.
Tritiated pGA, which contains a tritiated propyl-amine group added at the #17 position, binds HSP-90 and brings the isotope into proximity with the beads. […] The beta signal emitted from the isotope excites the scintillant, which creates a measurable signal. As competitive compounds are added to the assay mixture, they compete with bound tritiated pGA at the ATP-binding site on the N-terminal of HSP-90. When a compound displaces the labeled pGA, the signal is reduced (the beta-particles are no longer in proximity with the bead). This reduction in signal is used to quantify the extent to which the inhibitor/compound is competitive with pGA.
Typical reaction solutions contained 30 nM HSP-90 and 200 nM ^3H-pGA in binding buffer (100 mM Hepes, pH 7.5 and 150 mM KCl). […] Inhibitors were added to the HSP-90/^3H-pGA solutions at eleven different concentrations for Ki determinations. […] To determine percent inhibition, the compound was tested at 1 and 10 μM. The final DMSO in the samples was 4%. Copper-Ysi beads (Amersham, #RPNQ0096) that have been diluted in binding buffer were added to each well to give a final concentration of 100 μg/well. The plates were sealed, covered with a foil-covered lid and shaken for 30 minutes at room temperature. The beads were allowed to settle for 30 minutes after which the plates were counted using a Packard TopCount NXT instrument. This procedure has also been adapted for medium throughput using a Beckman Biomek FX. Samples were run in duplicate and on two separate days to assure an accurate value of Ki.
For Ki determinations, the corrected cpm's (actual cpm's minus background) were plotted vs. inhibitor concentration using GraphPad Prism software. […] The IC50 was then used to calculate the Ki by using the Cheng-Prusoff equation: […]
This is normally true when the observed IC50 is […] the HSP-90 concentration. For a tight binding inhibitor, the following equation can be applied: […]
EL and ELo are the radioligand-HSP-90 complexes in the presence and absence of inhibitor, respectively. EL/ELo represents the fractional signal in the presence of inhibitor. Io, Eo, and Lo are the inhibitor, HSP-90, and radioligand concentrations, respectively.

What is called inhibition is the share of the control response that was lost under treatment.

In the case of `O=C(c1ccc(O)cc1O)N1CCCC1` [Example 90, 4-(pyrrolidin-1-ylcarbonyl)benzene-1,3-diol], the inhibition at 1 µM was 23.2% and the inhibition at 10 µM turned out to be 65.4%.
The corresponding values for `Nc1nccc(-c2ccc(O)c(C(=O)N3Cc4ccccc4C3)c2)n1` [Example 31, 4-(2-aminopyrimidin-4-yl)-2-(1,3-dihydro-2H-isoindol-2-ylcarbonyl)phenol] are 8.1% and 12.9%.
`O=C(c1ccc(O)cc1O)N1CCN(c2nc3ccc(Cl)cc3o2)CC1` [Example 125, 4-{[4-(6-chloro-1,3-benzoxazol-2-yl)piperazin-1-yl]carbonyl}benzene-1,3-diol]: the inhibition at 1 µM was 22.4% and the inhibition at 10 µM stood at 59.8%.
For the compound `CCOc1cc2c(cc1OCC)CN(C(=O)c1ccc(O)cc1O)CC2` [Example 56, 4-[(6,7-diethoxy-3,4-dihydroisoquinolin-2(1H)-yl)carbonyl]benzene-1,3-diol], the inhibition at 1 µM is 27% and the inhibition at 10 µM turned out to be 73%.
Taken in the same sequence, the figures for `O=C1CC2(CCN(C(=O)c3ccc(O)cc3O)CC2)Oc2ccccc21` [Example 85] were 52.1% and 79.6%.
Taken in the same sequence, the figures for `O=C(c1cc2ccccc2cc1O)N1Cc2ccccc2C1` [Example 24, 3-(1,3-dihydro-2H-isoindol-2-ylcarbonyl)-2-naphthol] were 5.4% and 34.9%.
`O=C(c1ccc(O)cc1O)N1CCC(c2ccnc(C(F)(F)F)n2)CC1` [Example 83, 4-({4-[2-(trifluoromethyl)pyrimidin-4-yl]piperidin-1-yl}carbonyl)benzene-1,3-diol]: the inhibition at 1 µM worked out at 10.1% and the inhibition at 10 µM is 35%.
The corresponding values for `O=C(c1ccc(O)cc1O)N1CCCC(COc2cccc(Cl)c2)C1` (centres unmarked) [Example 59, 4-({3-[(3-chlorophenoxy)methyl]piperidin-1-yl}carbonyl)benzene-1,3-diol] are 58.6% and 82.9%.
As for `O=C(c1ccc(O)cc1O)N1CCC(O)(c2ccccc2)CC1` [Example 77, 4-[(4-hydroxy-4-phenylpiperidin-1-yl)carbonyl]benzene-1,3-diol], the inhibition at 1 µM was 44.6% and the inhibition at 10 µM amounted to 79.6%.
On to `CN(C(=O)c1ccc(O)cc1O)[C@@H]1CCCC[C@H]1O` [Example 40, 2,4-dihydroxy-N-(2-hydroxycyclohexyl)-N-methylbenzamide], for which the inhibition at 1 µM was 13.2% and the inhibition at 10 µM stood at 49.1%.
For `O=C(c1ccc(O)cc1O)N1CCN(c2nc(-c3ccccc3C(F)(F)F)cc(=O)[nH]2)CC1` [Example 126, 2-[4-(2,4-dihydroxybenzoyl)piperazin-1-yl]-6-[2-(trifluoromethyl)phenyl]pyrimidin-4(3H)-one], the inhibition at 1 µM worked out at 35.9% and the inhibition at 10 µM turned out to be 71%.
Taken in the same sequence, the figures for `O=C(c1ccc(O)cc1O)N1CCOCC2(CC(c3c(F)cccc3F)=NO2)C1` (centres unmarked) [Example 131, 4-{[3-(2,6-difluorophenyl)-1,7-dioxa-2,10-diazaspiro[4.6]undec-2-en-10-yl]carbonyl}benzene-1,3-diol] were 24.7% and 69.6%.
Taken in the same sequence, the figures for `Cc1ccc2c(c1)C=CC1(CCN(C(=O)c3ccc(O)cc3O)CC1)O2` [Example 82, 4-[(6-methyl-1′H-spiro[chromene-2,4′-piperidin]-1′-yl)carbonyl]benzene-1,3-diol] were 62.8% and 85.3%.
Taken in the same sequence, the figures for `O=C(c1ccc(Cl)cc1O)N1Cc2ccccc2C1` [Example 26, 5-chloro-2-(1,3-dihydro-2H-isoindol-2-ylcarbonyl)phenol] were 1% and 39%.
Consider `O=C(c1ccc(O)cc1O)N1CCOCC2(CC(c3ccccc3)=NO2)C1` (centres unmarked) [Example 130], for which the inhibition at 1 µM was determined as 46.2% and the inhibition at 10 µM turned out to be 82.4%.
The corresponding values for `O=C(c1ccc(O)cc1O)N1CCOCC(COCC2CC2)C1` (centres unmarked) [Example 37] are 24.6% and 64.1%.
